Experimental data from patent US20230118955A1 (priority 2020, published 2023).
Marks after values point to notes of the source that are not given here.

Legend:
[1] = test system: 3CLpro protease; format: biochemical, SARS-CoV
[2] = test system: recombinant human furin; experiment: Furin cleavage of Site S1 peptide (Peptide 1, Acetyl-SPRRAR-pNA) after incubation with MGO; format: biochemical; details: 8 mM MGO, 400 μM peptide 1, 5 nM furin
[3] = test system: trypsin; experiment: Trypsin (surrogate for TMPRSS2) cleavage of Site S2' peptide (Peptide 2, Acetyl-SKPSKR-pNA) after incubation with MGO; format: biochemical; details: 8 mM MGO, 400 μM peptide 2, 5 nM trypsin
[4] = test system: SARS-CoV-1; format: cell-based
[5] = test system: SARS-CoV-2; format: cell-based

SMILES | inhibition of 3CLpro protease activity (cleavage of pNA substrate) [1] | other results
COc1ccc([C@@H]2CC(=O)c3c(O)cc(O[C@@H]4O[C@H](CO[C@@H]5O[C@@H](C)[C@H](O)[C@@H](O)[C@H]5O)[C@@H](O)[C@H](O)[C@H]4O)cc3O2)cc1O [hesperidin] | inhibit activity of 3CLpro protease | –
O=C(O)C(O)Cc1ccccc1 (stereo not drawn) [3-phenyllactic acid] | inhibit activity of 3CLpro protease | –
O=c1c(O)c(-c2ccccc2)oc2cc(O)cc(O)c12 [galangin] | inhibit activity of 3CLpro protease | –
CC(=O)C=O [MGO, methylglyoxal] | – | reduction in pNA liberated (activation of peptide 1 by furin) ([2]; incubation 3 h): 97%; reduction in pNA liberated (activation of peptide 1 by furin) ([2]; incubation 4 h): 97%; reduction in pNA liberated (activation of peptide 1 by furin) ([2]; incubation time 0): 90%; reduction in pNA liberated (activation of peptide 2 by trypsin) ([3]; incubation 4 h): 88%; reduction in pNA liberated (activation of peptide 2 by trypsin) ([3]; incubation time 0): 21%
O=c1cc(-c2ccc(O)c(O)c2)oc2cc(O)cc(O)c12 [luteolin] | inhibit activity of 3CLpro protease | –
O=C(O)/C=C/c1ccc(O)cc1 [p-coumaric acid] | inhibit activity of 3CLpro protease | –
O=c1c(O)c(-c2ccc(O)c(O)c2)oc2cc(O)cc(O)c12 [quercetin] | inhibit activity of 3CLpro protease | –
O=c1c(O)c(-c2ccc(O)cc2)oc2cc(O)cc(O)c12 [kaempferol] | inhibit activity of 3CLpro protease | –
O=C1C[C@@H](c2ccccc2)Oc2cc(O)cc(O)c21 [pinocembrin] | inhibit activity of 3CLpro protease | –
O=C1c2c(O)cc(O)cc2O[C@H](c2ccccc2)[C@H]1O [pinobanksin] | inhibit activity of 3CLpro protease | –
CCO [EtOH, ethanol] | – | LRV (log10 reduction of virus compared to the virus control) [4]: 2.8 log10; Virus (CCID50/0.1 mL) [4]: 1.5 ± 0.2 CCID50/0.1 mL; LRV (log10 reduction of virus compared to the virus control) [5]: 3.9 log10; Virus (CCID50/0.1 mL) [5]: <0.7**** CCID50/0.1 mL
